SMILES strings stand for the structures. pEC50: −log10 of the molar value.

The test system of data set [1] is HIV-1 Y181C variant. Particulars: ref 7b, cited from earlier work.
Data set [2] relates to HIV-1 Y181C variant. Format: cell-based. To be noted: relative to 1f.
For data set [3] the following is noted: observed; cited from earlier work.
Data set [4] relates to HIV-1 strains with Tyr181Cys (Y181C) mutation. To be noted: cited from earlier work.
Data set [5] deals with HIV-1 Y181C combined with Lys103Asn. To be noted: cited from earlier work.

Take `N#Cc1ccc(Nc2ncc(Cc3c(F)cccc3F)o2)cc1` [Compound 1a]: the “activity towards a Y181C-containing strain” value in the data set with HIV-1 Y181C variant [1] (earlier work) is “no activity”. In the case of `CCc1cc(F)c(Cc2cnc(Nc3ccc(C#N)c(Cl)c3)o2)c(F)c1` [Compound 1e], in the data set on HIV-1 IIIB (wild-type) (relative to 1b), the “gain in WT potency over 1b (factor)” value was 5. In the case of `N#Cc1ccc(Nc2ncc(Cc3c(F)cc(C4CC4)cc3F)o2)cc1Cl` [Compound 1g], in the data set with HIV-1 IIIB (wild-type) (relative to 1f), the “factor less active against WT virus than 1f” value was determined as 5. Moreover, in the data set on HIV-1 Y181C variant [2], the “fold less active towards Y181C variant than 1f” value came out at 200 fold. With `Fc1cccc(F)c1Cc1cnc(Nc2ccc(Oc3cccnc3)c(Cl)c2)o1` [Compound 2a], the negative-log EC50 (pEC50) (commonly −log10 of the EC50, conventionally taken in molar units) in the data set on HIV-1 Y181C variant [1] (read-out: EC50 for the Y181C variant, earlier work) was 5.52.

`CCc1cc(F)c(Cc2cnc(Nc3ccc(Oc4cccnc4)c(Cl)c3)o2)c(F)c1` [Compound 2b]: the “fold activity boost against WT virus in comparison to 2a” value with HIV-1 IIIB (wild-type) (relative to 2a) is given as 5 fold. Consider `c1ccc(C2CC2)cc1` [cyclopropylbenzene], for which, in data set [3], the “octanol/water log P” value is reported as 3.3. Regarding `CC(C)Nc1cccnc1N1CCN(C(=O)c2cc3cc(NS(C)(=O)=O)ccc3[nH]2)CC1` [delavirdine], the “activity towards HIV-1 strains with Y181C mutation” value in data set [4] was “inactive”. For the compound `O=C1Nc2ccc(Cl)cc2[C@@](C#CC2CC2)(C(F)(F)F)O1` [efavirenz], the “activity towards Y181C combined with Lys103Asn” value in data set [5] is “debilitated”.

Consider `CC(C)c1ccccc1` [isopropylbenzene], for which, in data set [3], the “octanol/water log P” value was 3.7.

Turning to `Cc1ccnc2c1NC(=O)c1cccnc1N2C1CC1` [nevirapine], in data set [4], the “activity towards HIV-1 strains with Y181C mutation” value was “inactive”.
